Measured values as given in ChEMBL document CHEMBL3046319, “PCR-RFLP detection of the E198A mutation conferring resistance to benzimidazoles in field isolates of Monilinia laxa from Greece” (Crop Prot, 2012).

Tests used:
Type in all cases: functional
Monilinia laxa [1] = assay: Fungicidal activity against Monilinia laxa isolate MLK12 assessed as mycelial growth at 0.05 ug/ml at 25 degC after 4 days
Monilinia laxa [2] = assay: Fungicidal activity against Monilinia laxa isolate MLK1 assessed as mycelial growth at 0.05 ug/ml at 25 degC after 4 days
Monilinia laxa [3] = assay: Fungicidal activity against Monilinia laxa isolate MLC2 assessed as mycelial growth at 0.05 ug/ml at 25 degC after 4 days
Monilinia laxa [4] = assay: Fungicidal activity against Monilinia laxa isolate MLX1 assessed as mycelial growth at 0.05 ug/ml at 25 degC after 4 days
Monilinia laxa [5] = assay: Fungicidal activity against Monilinia laxa isolate MLP4 assessed as mycelial growth at 0.05 ug/ml at 25 degC after 4 days
Monilinia laxa [6] = assay: Fungicidal activity against Monilinia laxa isolate MLA1 assessed as mycelial growth at 0.05 ug/ml at 25 degC after 4 days
Monilinia laxa [7] = assay: Fungicidal activity against Monilinia laxa isolate MLX5 assessed as mycelial growth at 0.05 ug/ml at 25 degC after 4 days
Monilinia laxa [8] = assay: Fungicidal activity against Monilinia laxa isolate MLP2 assessed as mycelial growth at 0.05 ug/ml at 25 degC after 4 days
Monilinia laxa [9] = assay: Fungicidal activity against Monilinia laxa isolate MLBO5 assessed as mycelial growth at 0.05 ug/ml at 25 degC after 4 days
Monilinia laxa [10] = assay: Fungicidal activity against Monilinia laxa isolate MLBO2 assessed as mycelial growth at 0.05 ug/ml at 25 degC after 4 days
Monilinia laxa [11] = assay: Fungicidal activity against Monilinia laxa isolate MLG1 assessed as mycelial growth at 0.05 ug/ml at 25 degC after 4 days
Monilinia laxa [12] = assay: Fungicidal activity against Monilinia laxa isolate MLK12 assessed as mycelial growth at 1 ug/ml at 25 degC after 4 days
Monilinia laxa [13] = assay: Fungicidal activity against Monilinia laxa isolate MLK1 assessed as mycelial growth at 1 ug/ml at 25 degC after 4 days
Monilinia laxa [14] = assay: Fungicidal activity against Monilinia laxa isolate MLC2 assessed as mycelial growth at 1 ug/ml at 25 degC after 4 days
Monilinia laxa [15] = assay: Fungicidal activity against Monilinia laxa isolate MLX1 assessed as mycelial growth at 1 ug/ml at 25 degC after 4 days
Monilinia laxa [16] = assay: Fungicidal activity against Monilinia laxa isolate MLP4 assessed as mycelial growth at 1 ug/ml at 25 degC after 4 days
Monilinia laxa [17] = assay: Fungicidal activity against Monilinia laxa isolate MLBO2 assessed as mycelial growth at 1 ug/ml at 25 degC after 4 days
Monilinia laxa [18] = assay: Fungicidal activity against Monilinia laxa isolate MLA1 assessed as mycelial growth at 1 ug/ml at 25 degC after 4 days
Monilinia laxa [19] = assay: Fungicidal activity against Monilinia laxa isolate MLX5 assessed as mycelial growth at 1 ug/ml at 25 degC after 4 days
Monilinia laxa [20] = assay: Fungicidal activity against Monilinia laxa isolate MLP2 assessed as mycelial growth at 1 ug/ml at 25 degC after 4 days
Monilinia laxa [21] = assay: Fungicidal activity against Monilinia laxa isolate MLBO5 assessed as mycelial growth at 1 ug/ml at 25 degC after 4 days
Monilinia laxa [22] = assay: Fungicidal activity against Monilinia laxa isolate MLG1 assessed as mycelial growth at 1 ug/ml at 25 degC after 4 days
Monilinia laxa [23] = assay: Fungicidal activity against Monilinia laxa isolate MLK12 assessed as mycelial growth at 0.5 ug/ml at 25 degC after 4 days
Monilinia laxa [24] = assay: Fungicidal activity against Monilinia laxa isolate MLK1 assessed as mycelial growth at 0.5 ug/ml at 25 degC after 4 days
Monilinia laxa [25] = assay: Fungicidal activity against Monilinia laxa isolate MLC2 assessed as mycelial growth at 0.5 ug/ml at 25 degC after 4 days
Monilinia laxa [26] = assay: Fungicidal activity against Monilinia laxa isolate MLX1 assessed as mycelial growth at 0.5 ug/ml at 25 degC after 4 days
Monilinia laxa [27] = assay: Fungicidal activity against Monilinia laxa isolate MLP4 assessed as mycelial growth at 0.5 ug/ml at 25 degC after 4 days
Monilinia laxa [28] = assay: Fungicidal activity against Monilinia laxa isolate MLA1 assessed as mycelial growth at 0.5 ug/ml at 25 degC after 4 days
Monilinia laxa [29] = assay: Fungicidal activity against Monilinia laxa isolate MLX5 assessed as mycelial growth at 0.5 ug/ml at 25 degC after 4 days
Monilinia laxa [30] = assay: Fungicidal activity against Monilinia laxa isolate MLP2 assessed as mycelial growth at 0.5 ug/ml at 25 degC after 4 days
Monilinia laxa [31] = assay: Fungicidal activity against Monilinia laxa isolate MLBO5 assessed as mycelial growth at 0.5 ug/ml at 25 degC after 4 days
Monilinia laxa [32] = assay: Fungicidal activity against Monilinia laxa isolate MLBO2 assessed as mycelial growth at 0.5 ug/ml at 25 degC after 4 days
Monilinia laxa [33] = assay: Fungicidal activity against Monilinia laxa isolate MLG1 assessed as mycelial growth at 0.5 ug/ml at 25 degC after 4 days
Monilinia laxa [34] = assay: Fungicidal activity against Monilinia laxa isolate MLK12 assessed as mycelial growth at 5 ug/ml at 25 degC after 4 days
Monilinia laxa [35] = assay: Fungicidal activity against Monilinia laxa isolate MLK1 assessed as mycelial growth at 5 ug/ml at 25 degC after 4 days
Monilinia laxa [36] = assay: Fungicidal activity against Monilinia laxa isolate MLC2 assessed as mycelial growth at 5 ug/ml at 25 degC after 4 days
Monilinia laxa [37] = assay: Fungicidal activity against Monilinia laxa isolate MLX1 assessed as mycelial growth at 5 ug/ml at 25 degC after 4 days
Monilinia laxa [38] = assay: Fungicidal activity against Monilinia laxa isolate MLP4 assessed as mycelial growth at 5 ug/ml at 25 degC after 4 days
Monilinia laxa [39] = assay: Fungicidal activity against Monilinia laxa isolate MLBO2 assessed as mycelial growth at 5 ug/ml at 25 degC after 4 days
Monilinia laxa [40] = assay: Fungicidal activity against Monilinia laxa isolate MLA1 assessed as mycelial growth at 5 ug/ml at 25 degC after 4 days
Monilinia laxa [41] = assay: Fungicidal activity against Monilinia laxa isolate MLX5 assessed as mycelial growth at 5 ug/ml at 25 degC after 4 days
Monilinia laxa [42] = assay: Fungicidal activity against Monilinia laxa isolate MLP2 assessed as mycelial growth at 5 ug/ml at 25 degC after 4 days
Monilinia laxa [43] = assay: Fungicidal activity against Monilinia laxa isolate MLBO5 assessed as mycelial growth at 5 ug/ml at 25 degC after 4 days
Monilinia laxa [44] = assay: Fungicidal activity against Monilinia laxa isolate MLG1 assessed as mycelial growth at 5 ug/ml at 25 degC after 4 days
Monilinia laxa [45] = assay: Fungicidal activity against Monilinia laxa isolate MLK1 assessed as mycelial growth at 0.1 ug/ml at 25 degC after 4 days
Monilinia laxa [46] = assay: Fungicidal activity against Monilinia laxa isolate MLC2 assessed as mycelial growth at 0.1 ug/ml at 25 degC after 4 days
Monilinia laxa [47] = assay: Fungicidal activity against Monilinia laxa isolate MLX1 assessed as mycelial growth at 0.1 ug/ml at 25 degC after 4 days
Monilinia laxa [48] = assay: Fungicidal activity against Monilinia laxa isolate MLP4 assessed as mycelial growth at 0.1 ug/ml at 25 degC after 4 days
Monilinia laxa [49] = assay: Fungicidal activity against Monilinia laxa isolate MLK12 assessed as mycelial growth at 0.1 ug/ml at 25 degC after 4 days
Monilinia laxa [50] = assay: Fungicidal activity against Monilinia laxa isolate MLA1 assessed as mycelial growth at 0.1 ug/ml at 25 degC after 4 days
Monilinia laxa [51] = assay: Fungicidal activity against Monilinia laxa isolate MLX5 assessed as mycelial growth at 0.1 ug/ml at 25 degC after 4 days
Monilinia laxa [52] = assay: Fungicidal activity against Monilinia laxa isolate MLP2 assessed as mycelial growth at 0.1 ug/ml at 25 degC after 4 days
Monilinia laxa [53] = assay: Fungicidal activity against Monilinia laxa isolate MLBO5 assessed as mycelial growth at 0.1 ug/ml at 25 degC after 4 days
Monilinia laxa [54] = assay: Fungicidal activity against Monilinia laxa isolate MLBO2 assessed as mycelial growth at 0.1 ug/ml at 25 degC after 4 days
Monilinia laxa [55] = assay: Fungicidal activity against Monilinia laxa isolate MLG1 assessed as mycelial growth at 0.1 ug/ml at 25 degC after 4 days

SMILES | Activity (Monilinia laxa [1]) [%] | Activity (Monilinia laxa [2]) [%] | Activity (Monilinia laxa [3]) [%] | Activity (Monilinia laxa [4]) [%] | Activity (Monilinia laxa [5]) [%] | Activity (Monilinia laxa [6]) [%] | Activity (Monilinia laxa [7]) [%] | Activity (Monilinia laxa [8]) [%] | Activity (Monilinia laxa [9]) [%] | Activity (Monilinia laxa [10]) [%] | Activity (Monilinia laxa [11]) [%] | Activity (Monilinia laxa [23]) [%] | Activity (Monilinia laxa [24]) [%] | Activity (Monilinia laxa [25]) [%] | Activity (Monilinia laxa [26]) [%] | Activity (Monilinia laxa [27]) [%] | Activity (Monilinia laxa [28]) [%] | Activity (Monilinia laxa [29]) [%] | Activity (Monilinia laxa [30]) [%] | Activity (Monilinia laxa [31]) [%] | further results
N#Cc1c[nH]cc1-c1cccc2c1OC(F)(F)O2 [FLUDIOXONIL] | 12.78 | 13.66 | 18.3 | 21.09 | 13.89 | 16.22 | 17.5 | 16.05 | 11.01 | 17.99 | 15.05 | – | – | – | – | – | – | – | – | – | –
CCCCNC(=O)n1c(NC(=O)OC)nc2ccccc21 [BENOMYL] | – | – | – | – | – | – | – | – | – | – | – | – | – | – | – | – | – | – | – | – | Activity (Monilinia laxa [12]): 100%; Activity (Monilinia laxa [13]): 100%; Activity (Monilinia laxa [14]): 80.01%; Activity (Monilinia laxa [15]): 100%; Activity (Monilinia laxa [16]): 100%; Activity (Monilinia laxa [17]): 0%; Activity (Monilinia laxa [18]): 0%; Activity (Monilinia laxa [19]): 0%; Activity (Monilinia laxa [20]): 0%; Activity (Monilinia laxa [21]): 0%; Activity (Monilinia laxa [22]): 0%
CC(C)NC(=O)N1CC(=O)N(c2cc(Cl)cc(Cl)c2)C1=O [IPRODIONE] | – | – | – | – | – | – | – | – | – | – | – | 45.46 | 57.14 | 46.61 | 21.88 | 45.23 | 30.22 | 54.55 | 28.12 | 0 | Activity (Monilinia laxa [32]): 40.44%; Activity (Monilinia laxa [33]): 35.42%
CC(C)(C)C(O)(CCc1ccc(Cl)cc1)Cn1cncn1 (centres undefined) [TEBUCONAZOLE] | 30 | 22.24 | 39.39 | 30.77 | 35.71 | 47.41 | 65.45 | 34.29 | 49.65 | 48.34 | 25.3 | – | – | – | – | – | – | – | – | – | –
COC(=O)NC(=S)Nc1ccccc1NC(=S)NC(=O)OC [THIOPHANATE METHYL] | – | – | – | – | – | – | – | – | – | – | – | – | – | – | – | – | – | – | – | – | Activity (Monilinia laxa [34]): 100%; Activity (Monilinia laxa [35]): 100%; Activity (Monilinia laxa [36]): 95.25%; Activity (Monilinia laxa [37]): 100%; Activity (Monilinia laxa [38]): 93.75%; Activity (Monilinia laxa [39]): 0%; Activity (Monilinia laxa [40]): 0%; Activity (Monilinia laxa [41]): 0%; Activity (Monilinia laxa [42]): 0%; Activity (Monilinia laxa [43]): 0%; Activity (Monilinia laxa [44]): 0%
COC(=O)N(OC)c1ccccc1COc1ccn(-c2ccc(Cl)cc2)n1 [PYRACLOSTROBIN] | 37.5 | 50.05 | 34.48 | 29.41 | 47.32 | 36.82 | 51.15 | 50 | 49.62 | 40.65 | 25 | – | – | – | – | – | – | – | – | – | –
O=C(Nc1ccccc1-c1ccc(Cl)cc1)c1cccnc1Cl [BOSCALID] | – | – | – | – | – | – | – | – | – | – | – | 45.05 | 62.05 | 0 | 60.03 | 0 | 42.73 | 0 | 66.82 | 0 | Activity (Monilinia laxa [32]): 36.67%; Activity (Monilinia laxa [33]): 0%
CC1(C(=O)Nc2ccc(O)c(Cl)c2Cl)CCCCC1 [FENHEXAMID] | – | – | – | – | – | – | – | – | – | – | – | – | – | – | – | – | – | – | – | – | Activity (Monilinia laxa [45]): 17.65%; Activity (Monilinia laxa [46]): 50.35%; Activity (Monilinia laxa [47]): 21.82%; Activity (Monilinia laxa [48]): 45.83%; Activity (Monilinia laxa [49]): 60.05%; Activity (Monilinia laxa [50]): 23.05%; Activity (Monilinia laxa [51]): 50.34%; Activity (Monilinia laxa [52]): 25%; Activity (Monilinia laxa [53]): 21.05%; Activity (Monilinia laxa [54]): 10.03%; Activity (Monilinia laxa [55]): 0%
CCC(C)(NC(=O)c1cc(Cl)c(C)c(Cl)c1)C(=O)CCl (centres undefined) [ZOXAMIDE] | – | – | – | – | – | – | – | – | – | – | – | 0 | 0 | 0 | 0 | 0 | 48.95 | 39.09 | 59.09 | 44 | Activity (Monilinia laxa [32]): 43.33%; Activity (Monilinia laxa [33]): 36.05%
